# Test results: patent publication US11591288B2, “Compositions and methods for treating atherosclerotic cardiovascular disease” (GAVISH-GALILEE BIO APPLICATIONS LTD., priority 2017, dated 2023)
# Read-outs that look alike come from different tables or passages of the source.
# Legend:
# J774A.1 macrophages = assay: Ox-LDL-induced foam cell formation, Oil Red O staining; type: cell-based, murine
# Procedure: J774A.1 macrophage cells were grown in RPMI 1640 media containing 10% FBS in cell culture flask till ˜90% confluence (37° C. incubator containing 5% CO2). The cells were incubated at 37° C. overnight under sterile conditions, approximately 1×10^5 J774.1 cells/well in a 96-well plate. Macrophage cells were incubated for an additional 24 h with lyso-DGTS (50 and 100 μg/ml), rePON1 (50 μg/ml), or rePON1 preincubated with different concentrations of lyso-DGTS (10, 20, 50 and 100 μg/ml). The cells were washed and ox-LDL (25 μg/ml in a RPMI medium) was added for another 24 h to yield foam cells. The cells were washed 3 times with PBS, following fixation with 4% formaldehyde for 10 min, the cells were stained with Oil Red O (0.35 mg/100 ml in 60% isopropanol; Sigma-Aldrich) for 15 min at 37° C. to evaluate the characteristic lipid accumulation in macrophage-derived foam cells. Foam cell formation was observed under microscope.
# The density of lipid content was evaluated by alcohol extraction after staining. The absorbance at 514 nm was measured using microplate reader (Infinite M200 PRO fluorescence spectrophotometer (Tecan)).
# Macrophages uptake of ox-LDL, forming foam cell, is the hallmark of atherogenesis. The ability of lyso-DGTS or rePON1 incubated with lyso-DGTS to attenuate foam cell formation was examined. […]
# [1] = system: Human umbilical vein endothelial cells (HUVECs); assay: HDL-induced endothelial NO release, DAN assay; type: cell-based; settings: HDL 50 μg/ml preincubated 3 h with 10, 20, 50 μg/ml; HUVECs 2 h
# Procedure: HUVECs were stimulated for 2 h with HDL (50 μg/ml) preincubated with DMSO, lyso-DGTS and S1P at final concentrations of 10, 20, and 50 μg/ml for 3 h. Media were then collected and treated with nitrate reductase followed by analysis using the DAN assay. Data are expressed as NO concentration (μM) released by the cells. Each experiment was repeated separately at least three times. *p<0.05, ***p<0.0001 related to the control (HDL without lyso-DGTS or S1P). Statistics were analyzed using one-way annova Graphpad prism 5 software.
# Human umbilical vein endothelial cells (HUVECs) were incubated for 2 hours with HDL preincubated with different concentration of lyso-DGTS or S1P for 3 hours, and NO production determined using 2,3-diaminonapthalene (DAN) assay.
# PON1 = PON1 (Homo sapiens, UniProt P27169); assay: PON1 binding to HDL (ratio HDL-bound PON1 vs. free PON1); settings: data not shown
# Chain of PON1 (P27169 whole entry, species assumed): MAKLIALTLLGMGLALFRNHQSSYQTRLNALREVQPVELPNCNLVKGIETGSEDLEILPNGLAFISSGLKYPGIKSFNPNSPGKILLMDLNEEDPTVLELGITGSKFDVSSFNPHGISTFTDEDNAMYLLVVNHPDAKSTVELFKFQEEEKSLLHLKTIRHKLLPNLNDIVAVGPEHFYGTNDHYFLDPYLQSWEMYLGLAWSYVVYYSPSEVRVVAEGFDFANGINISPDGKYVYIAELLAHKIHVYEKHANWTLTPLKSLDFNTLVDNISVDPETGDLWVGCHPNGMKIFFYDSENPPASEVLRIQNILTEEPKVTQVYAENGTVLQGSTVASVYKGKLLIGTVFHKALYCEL
# HDL = assay: HDL-lyso-DGTS interaction, Trp fluorescence quenching; type: binding, human
# Procedure: FIGS. 10A-10B show tryptophan fluorescence spectra of HDL (0.03 mg/ml) incubated with/without lyso-DGTS at various concentrations (1, 5, 10, 25, 50, 75, and 100 μg/ml) in black 96-well plates for 4 h at 37° C. (10A) or 25° C. (10B). The fluorescence was measured at excitation/emission 290/320-340 nm. The ability of lyso-DGTS to elevate HDL activity correlates with its binding affinity to HDL. Each experiment repeated separately at least three times.
# HDL and LDL were isolated from human plasma samples by discontinuous density gradient ultracentrifugation and dialyzed against saline containing sodium ethylenediaminetetraacetic acid (EDTA; 1 mmol/L) to protect the lipoproteins against oxidation. Before generating the experiments, LDL and HDL were dialyzed twice, for 1 h each time, and once more overnight against PBS at 4° C. to remove EDTA.
# In order to test whether the protective effect of lyso-DGTS on HDL occurs via specific interaction between lyso-DGTS and the lipoprotein, the HDL-lyso-DGTS interaction was investigated by the Trp-fluorescence-quenching method. […] (FIG. 10A) and 25° C. (FIG. 10B) in the 300-450 nm range with an excitation wavelength of 290 nm. Lyso-DGTS quenched HDL fluorescence in a dose-dependent manner at both temperatures.
# Quenching pathways can be described by the Stem-Volmer equation (eq. 1 above). The Stern-Volmer curve was linear at the tested concentration of lyso-DGTS at both temperatures (with R>0.99 and p<0.0001). The Ksv values were (5.59±0.42)×10^3 M^−1 at 37° C. (FIG. 11A) and (4.83±0.59)×10^3 M^−1 at 25° C.
# The binding constant and binding sites were calculated as shown for rePON1, using eq. 2 above. […] (FIG. 11D). The values obtained for n were not affected by temperature and were equal to 1 (Table 5). The thermodynamic parameters: enthalpy (ΔH), entropy (ΔS), and free energy (ΔG) were calculated to characterize the HDL-lyso-DGTS interaction type.
# APOA1 = APOA1 (Homo sapiens, UniProt P02647); assay: APOA1-lyso-DGTS interaction, Trp fluorescence quenching; type: binding; settings: for Kd: read-out: Binding constant Ka, lyso-DGTS-APOA1 (converted)
# Chain of APOA1 (P02647 19-267, species assumed): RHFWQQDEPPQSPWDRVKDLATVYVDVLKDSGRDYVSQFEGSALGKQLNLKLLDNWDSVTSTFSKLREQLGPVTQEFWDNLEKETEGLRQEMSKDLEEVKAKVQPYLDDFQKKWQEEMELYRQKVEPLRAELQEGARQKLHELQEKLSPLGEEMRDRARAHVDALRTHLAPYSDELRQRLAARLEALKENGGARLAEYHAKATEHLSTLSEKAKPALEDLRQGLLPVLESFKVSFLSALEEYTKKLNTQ
# Procedure: The Trp-fluorescence-quenching method was further used to examine the interaction between lyso-DGTS and APOA1, the major protein component of HDL. Ka and thermodynamic parameters were also calculated (Table 6). […] The values obtained for n were not affected by temperature and were equal to=1 (Table 6).
# The thermodynamic parameters: enthalpy (ΔH), entropy (ΔS), and free energy (ΔG) were calculated to characterize the APOA1-lyso-DGTS interaction type.
structure (smiles),measurement,setting,value
"CC/C=C\C/C=C\C/C=C\C/C=C\C/C=C\CCCC(=O)OCC(O)COCCC(C(=O)[O-])[N+](C)(C)C (stereo not shown) [lyso-DGTS, lyso-diacylglyceryltrimethylhornmoserine]",enhancement of rePON1 ability to inhibit foam cell formation,"J774A.1 macrophages; 100 μg/ml lyso-DGTS vs rePON1 alone, not significant",~10%
same,reduction of oil red staining intensity,"J774A.1 macrophages; lyso-DGTS (50 μg/ml) alone, then ox-LDL 25 μg/ml 24 h",32%
same,effect on HDL ability to induce endothelial NO release,[1],significantly increased the HDL ability to induce endothelial NO release at a dose dependent manner
same,ratio between HDLbound-PON1 vs. free-PON1,PON1,did not change
same,"Stern-Volmer quenching constant Ksv, HDL",HDL; 25° C.,(4.83±0.59)×10^3 M^−1
same,"Stern-Volmer quenching constant Ksv, HDL",HDL; 37° C.,(5.59±0.42)×10^3 M^−1
same,"Binding constant Ka, lyso-DGTS-HDL",HDL; 298 K (25° C.),3780 M⁻¹
same,"Binding constant Ka, lyso-DGTS-HDL",HDL; 310 K (37° C.),21650 M⁻¹
same,"number of binding sites (n), lyso-DGTS-APOA1",APOA1; 298 K,1.01 ± 0.05
same,"ΔG, lyso-DGTS-APOA1 interaction",APOA1; 298 K,-1.09 kcal/mol
same,Kd,APOA1; 298 K (25° C.),422 µM
same,"number of binding sites (n), lyso-DGTS-APOA1",APOA1; 310 K,1.23 ± 0.05
same,"ΔG, lyso-DGTS-APOA1 interaction",APOA1; 310 K,-1.464 kcal/mol
same,Kd,APOA1; 310 K (37° C.),43.9 µM
same,"ΔH, lyso-DGTS-APOA1 interaction",APOA1; from 298 and 310 K,8.243 kcal/mol
same,"ΔS, lyso-DGTS-APOA1 interaction",APOA1; from 298 and 310 K,131.126 J/mol K
